This note sets out measurements from patent US7776791B2, “N-heterocyclyl phenyl-substituted cyclic ketoenols” (Bayer CropScience AG, priority 2003, dated 2010).

Structures are written as SMILES.

What all share (format): in vivo
Assay [1] deals with caterpillars of the army worm (Spodoptera frugiperda). The experiment in a line: Spodoptera frugiperda test. The note with it: 100 ppm active compound, leaf dip. On the procedure:
Solvent: 7 parts by weight of dimethylformamide
Emulsifier: 2 parts by weight of alkylaryl polyglycol ether
To produce a suitable preparation of active compound, 1 part by weight of active compound is mixed with the stated amounts of solvent and emulsifier, and the concentrate is diluted with emulsifier-containing water to the desired concentration.
Cabbage leaves (Brassica oleracea) are treated by being dipped into the preparation of active compound of the desired concentration and are populated with caterpillars of the army worm (Spodoptera frugiperda) while the leaves are still moist.
After the desired period of time, the kill in % is determined. 100% means that all caterpillars have been killed; 0% means that none of the caterpillars have been killed.

Assay [2] has as its system monocotyledonous and dicotyledonous weed and crop plants. The experiment in a line: Herbicidal post-emergence action (K). The note with it: greenhouse, 320 g of a.i./ha, EC formulation. The protocol:
K. Herbicidal Post-Emergence Action
Seeds of monocotyledonous and dicotyledonous weed and crop plants are placed into sandy loam in wood fibre pots, covered with soil and cultivated in a greenhouse under good growth conditions. 2-3 weeks after sowing, the test plants are treated at the one-leaf stage. The test compounds, formulated as wettable powders (WP) or emulsifiable concentrates (EC), are, in various dosages with a water application rate of 600 l/ha (converted), with 0.2% of wetting agent added, sprayed onto the green parts of the plants. After the test plants were kept in a greenhouse under optimum growth conditions for about 3 weeks, the effect of the preparations is rated visually in comparison to untreated controls (herbicidal effect in percent (%): 100% effect=the plants have died, 0% effect=like controlled plants).

For assay [3], the system named is larvae of the mustard beetle (Phaedon cochleariae). As to the kind of experiment: Phaedon larvae test. The note with it: 500 ppm active compound, leaf dip. The protocol:
Solvent: 7 parts by weight of dimethylformamide Emulsifier: 2 parts by weight of alkylaryl polyglycol ether To produce a suitable preparation of active compound, 1 part by weight of active compound is mixed with the stated amounts of solvent and emulsifier, and the concentrate is diluted with emulsifier-containing water to the desired concentration. Cabbage leaves (Brassica oleracea) are treated by being dipped into the preparation of active compound of the desired concentration and are populated with larvae of the mustard beetle (Phaedon cochleariae) while the leaves are still moist.

`COC1CCC2(CC1)NC(=O)C(c1cc(-n3cc(Cl)cn3)ccc1C)=C2O` (stereo not shown) [Ex. I-1-a-1]: in assay [1], the “Kill rate in % after 7 d” value stood at 85%. Further, the “herbicidal effect in percent, Echinochloa” value in assay [2] (Echinochloa) is 100%. Moreover, the “herbicidal effect in percent, Setaria” value in assay [2] (Setaria) was 100%. In assay [2] (Sorghum), the “herbicidal effect in percent, Sorghum” value is on record as 90%. Moreover, in assay [2] (Sugar beet), the “herbicidal effect in percent, Sugar beet” value was 0%.

For the compound `Cc1ccc(-n2cc(Cl)cn2)cc1C1=C(O)C2(CCCCC2)CC1=O` [Ex. I-6-a-1], the “Kill rate in % after 7 d” value in assay [3] is 90%.

For the compound `Cc1ccc(-n2cc(Cl)cn2)cc1C1=C(O)CC(C)(C)CC1=O` [Ex. I-7-a-1], the “Kill rate in % after 7 d” value in assay [3] is 100%.
